Measurements reported in ChEMBL document CHEMBL1649565, “Besifloxacin, a novel fluoroquinolone, has broad-spectrum in vitro activity against aerobic and anaerobic bacteria” (Antimicrob Agents Chemother, 2009).
≈ marks a conversion by molar mass, not a printed value. Calls of active or inactive are those of the source. The calls are words filed in the database; no cut-off is given here.

How the values were obtained:
[1] = system: Neisseria meningitidis; test: Antibacterial activity against Neisseria meningitidis by CLSI M7-A7 method; assay type: functional
[2] = system: Klebsiella aerogenes; test: Antibacterial activity against Enterobacter aerogenes by CLSI M7-A7 method; assay type: functional
[3] = system: Streptococcus mitis; test: Antibacterial activity against Streptococcus mitis by CLSI M100-S18 method; assay type: functional
[4] = system: Klebsiella oxytoca; test: Antibacterial activity against Klebsiella oxytoca assessed as percent susceptible isolates by CLSI M7-A7 method; assay type: functional
[5] = system: Pseudomonas aeruginosa; test: Antibacterial activity against non-ciprofloxacin-susceptible Pseudomonas aeruginosa assessed as percent susceptible isolates by CLSI M7-A7 method; assay type: functional
[6] = system: Staphylococcus aureus; test: Antibacterial activity against ciprofloxacin-susceptible and methicillin-resistant Staphylococcus aureus assessed as percent susceptible isolates by CLSI M100-S18 method; assay type: functional
[7] = system: Acinetobacter calcoaceticus; test: Antibacterial activity against Acinetobacter calcoaceticus assessed as percent susceptible isolates by CLSI M7-A7 method; assay type: functional
[8] = system: Pseudomonas aeruginosa; test: Antibacterial activity against ciprofloxacin-susceptible Pseudomonas aeruginosa assessed as percent susceptible isolates by CLSI M7-A7 method; assay type: functional
[9] = system: Enterococcus faecalis; test: Antibacterial activity against vancomycin- resistant Enterococcus faecalis by CLSI M100-S18 method; assay type: functional
[10] = system: Streptococcus salivarius; test: Antibacterial activity against Streptococcus salivarius by CLSI M100-S18 method; assay type: functional
[11] = system: Klebsiella oxytoca; test: Antibacterial activity against Klebsiella oxytoca by CLSI M7-A7 method; assay type: functional
[12] = system: Acinetobacter lwoffii; test: Antibacterial activity against Acinetobacter lwoffii assessed as percent susceptible isolates by CLSI M7-A7 method; assay type: functional
[13] = system: Listeria monocytogenes; test: Antibacterial activity against Listeria monocytogenes by CLSI M100-S18 method; assay type: functional
[14] = system: Proteus vulgaris; test: Antibacterial activity against Proteus vulgaris assessed as percent susceptible isolates by CLSI M7-A7 method; assay type: functional
[15] = system: Moraxella catarrhalis; test: Antibacterial activity against Moraxella catarrhalis assessed as percent susceptible isolates by CLSI M7-A7 method; assay type: functional
[16] = system: Proteus mirabilis; test: Antibacterial activity against Proteus mirabilis assessed as percent susceptible isolates by CLSI M7-A7 method; assay type: functional
[17] = system: Staphylococcus epidermidis; test: Antibacterial activity against non-ciprofloxacin-susceptible and methicillin-susceptible Staphylococcus epidermidis by CLSI M100-S18 method; assay type: functional
[18] = system: Citrobacter freundii; test: Antibacterial activity against Citrobacter freundii assessed as percent susceptible isolates by CLSI M7-A7 method; assay type: functional
[19] = Antibacterial activity against Lancefield Streptococcus sp. 'group C' by CLSI M100-S18 method; assay type: functional
[20] = system: Stenotrophomonas maltophilia; test: Antibacterial activity against levofloxacin-susceptible Stenotrophomonas maltophilia assessed as assessed as percent susceptible isolates by CLSI M7-A7 method; assay type: functional
[21] = system: Streptococcus equinus; test: Antibacterial activity against Streptococcus bovis by CLSI M100-S18 method; assay type: functional
[22] = system: Enterobacter cloacae; test: Antibacterial activity against Enterobacter cloacae assessed as percent susceptible isolates by CLSI M7-A7 method; assay type: functional
[23] = system: Staphylococcus epidermidis
[24] = system: Streptococcus constellatus; test: Antibacterial activity against Streptococcus constellatus by CLSI M100-S18 method; assay type: functional
[25] = system: Staphylococcus epidermidis; test: Antibacterial activity against ciprofloxacin-susceptible and methicillin-resistant Staphylococcus epidermidis assessed as percent susceptible isolates by CLSI M100-S18 method; assay type: functional
[26] = system: Haemophilus influenzae; test: Antibacterial activity against non-ciprofloxacin-susceptible Haemophilus influenzae by CLSI M7-A7 method; assay type: functional
[27] = system: Haemophilus influenzae; test: Antibacterial activity against ciprofloxacin-susceptible Haemophilus influenzae by CLSI M7-A7 method; assay type: functional
[28] = system: Staphylococcus hominis; test: Antibacterial activity against Staphylococcus hominis by CLSI M100-S18 method; assay type: functional
[29] = system: Staphylococcus aureus; test: Antibacterial activity against non-ciprofloxacin-susceptible and methicillin-susceptible Staphylococcus aureus by CLSI M100-S18 method; assay type: functional
[30] = system: Acinetobacter baumannii; test: Antibacterial activity against Acinetobacter baumannii by CLSI M7-A7 method; assay type: functional
[31] = system: Staphylococcus haemolyticus; test: Antibacterial activity against Staphylococcus haemolyticus assessed as percent susceptible isolates by CLSI M100-S18 method; assay type: functional
[32] = system: Acinetobacter baumannii; test: Antibacterial activity against Acinetobacter baumannii assessed as percent susceptible isolates by CLSI M7-A7 method; assay type: functional
[33] = system: Morganella morganii; test: Antibacterial activity against Morganella morganii assessed as percent susceptible isolates by CLSI M7-A7 method; assay type: functional
[34] = system: Stenotrophomonas maltophilia; test: Antibacterial activity against non-levofloxacin susceptible Stenotrophomonas maltophilia assessed as percent susceptible isolates by CLSI M7-A7 method; assay type: functional
[35] = system: Streptococcus sanguinis; test: Antibacterial activity against Streptococcus sanguinis assessed as percent susceptible isolates by CLSI M100-S18 method; assay type: functional
[36] = system: Streptococcus mitis; test: Antibacterial activity against Streptococcus mitis assessed as percent susceptible isolates by CLSI M100-S18 method; assay type: functional
[37] = system: Streptococcus oralis; test: Antibacterial activity against Streptococcus oralis assessed as percent susceptible isolates by CLSI M100-S18 method; assay type: functional
[38] = system: Streptococcus intermedius; test: Antibacterial activity against Streptococcus intermedius assessed as percent susceptible isolates by CLSI M100-S18 method; assay type: functional
[39] = system: Streptococcus salivarius; test: Antibacterial activity against Streptococcus salivarius assessed as percent susceptible isolates by CLSI M100-S18 method; assay type: functional
[40] = system: Streptococcus equinus; test: Antibacterial activity against Streptococcus bovis assessed as percent susceptible isolates by CLSI M100-S18 method; assay type: functional
[41] = system: Streptococcus constellatus; test: Antibacterial activity against Streptococcus constellatus assessed as percent susceptible isolates by CLSI M100-S18 method; assay type: functional
[42] = system: Streptococcus anginosus; test: Antibacterial activity against Streptococcus anginosus assessed as percent susceptible isolates by CLSI M100-S18 method; assay type: functional

Compound `C[C@H]1COc2c(N3CCN(C)CC3)c(F)cc3c(=O)c(C(=O)O)cn1c23.C[C@H]1COc2c(N3CCN(C)CC3)c(F)cc3c(=O)c(C(=O)O)cn1c23.O` [LEVOFLOXACIN] has an MIC50 [1] of 0.008 µg/mL, an MIC90 [1] of 0.015 µg/mL and an MIC50 [2] of 0.06 µg/mL. It also gave an MIC90 [2] of 16 µg/mL, an MIC50 [3] of 1 µg/mL and an MIC90 [3] of 4 µg/mL. For the same compound, the Activity [4] was 90%, the Activity [5] was 1% and the Activity [6] was 100%. It also gave an Activity [7] of 66.7%, an Activity [8] of 96.2% and an MIC50 [9] of 1 µg/mL. The MIC90 [9] was 64 µg/mL, the MIC50 [10] was 1 µg/mL and the MIC90 [10] was 4 µg/mL. For the same compound, the MIC50 [11] was 0.03 µg/mL, the MIC90 [11] was 0.5 µg/mL and the Activity [12] was 86%. It also gave an MIC50 [13] of 0.5 µg/mL, an MIC90 [13] of 1 µg/mL and an Activity [14] of 100%. It also gave an Activity [15] of 100%, an Activity [16] of 76% and an MIC50 [17] of 8 µg/mL. For the same compound, the Activity [18] was 90%, the MIC50 [19] was 0.5 µg/mL and the MIC90 [19] was 0.5 µg/mL. It also gave an Activity [20] of 0%, an MIC50 [21] of 1 µg/mL and an MIC90 [21] of 4 µg/mL. The Activity [22] was 92%, the MIC90 [23] was “inactive” and the MIC50 [24] was 1 µg/mL. For the same compound, the MIC90 [24] was 4 µg/mL, the Activity [25] was 100% and the MIC50 [26] was 8 µg/mL. The MIC90 [26] was 16 µg/mL, the MIC50 [27] was 0.015 µg/mL and the MIC90 [27] was 0.015 µg/mL. The MIC50 [28] was 8 µg/mL, the MIC90 [28] was greater than 8 µg/mL and the MIC50 [29] was greater than 8 µg/mL. The MIC90 [29] was greater than 8 µg/mL, the MIC50 [30] was 8 µg/mL and the MIC90 [30] was 64 µg/mL. For the same compound, the Activity [31] was 37.6%, the Activity [32] was 37.7% and the Activity [33] was 76.5%. The Activity [34] was 100%.
Compound `NC[C@H]1O[C@H](O[C@H]2[C@H](O)[C@@H](O[C@H]3O[C@H](CO)[C@@H](O)[C@H](N)[C@H]3O)[C@H](N)C[C@@H]2N)[C@H](N)C[C@@H]1O` [TOBRAMYCIN] has an Activity [35] of 95.5%, an MIC50 [2] of 0.5 µg/mL (≈ 1.07 µM) and an MIC90 [2] of 8 µg/mL (≈ 17.1 µM). It also gave an MIC50 [3] of 0.06 µg/mL (≈ 0.128 µM), an MIC90 [3] greater than 8 µg/mL and an Activity [5] of 44.8%. The Activity [6] was 68.4%, the Activity [7] was 92.6% and the Activity [8] was 95.2%. The Activity [36] was 95.5%, the Activity [37] was 95.5% and the Activity [38] was 95.5%. The MIC50 [9] was 16 µg/mL (≈ 34.2 µM), the MIC90 [9] was greater than 128 µg/mL and the MIC50 [10] was 0.06 µg/mL (≈ 0.128 µM). For the same compound, the MIC90 [10] was greater than 8 µg/mL, the MIC50 [11] was 0.5 µg/mL (≈ 1.07 µM) and the MIC90 [11] was 1 µg/mL (≈ 2.14 µM). For the same compound, the Activity [12] was 94%, the MIC50 [13] was 0.12 µg/mL (≈ 0.257 µM) and the MIC90 [13] was 0.12 µg/mL (≈ 0.257 µM). It also gave an Activity [14] of 100%, an Activity [15] of 100% and an Activity [16] of 100%. The Activity [39] was 95.5%, the MIC50 [17] was 2 µg/mL (≈ 4.28 µM) and the Activity [18] was 99%. It also gave an MIC50 [19] of 0.06 µg/mL (≈ 0.128 µM), an MIC90 [19] greater than 8 µg/mL and an Activity [20] of 1.9%. The Activity [40] was 95.5%, the MIC50 [21] was 0.06 µg/mL (≈ 0.128 µM) and the MIC90 [21] was greater than 8 µg/mL. The Activity [22] was 100%, the MIC90 [23] was “inactive” and the MIC50 [24] was 0.06 µg/mL (≈ 0.128 µM). The MIC90 [24] was greater than 8 µg/mL, the Activity [25] was 33.3% and the Activity [41] was 95.5%. The MIC50 [26] was 4 µg/mL (≈ 8.56 µM), the MIC90 [26] was 8 µg/mL (≈ 17.1 µM) and the MIC50 [27] was 2 µg/mL (≈ 4.28 µM). For the same compound, the MIC90 [27] was 8 µg/mL (≈ 17.1 µM), the MIC50 [28] was 16 µg/mL (≈ 34.2 µM) and the MIC90 [28] was 32 µg/mL (≈ 68.4 µM). It also gave an MIC50 [29] of 1 µg/mL (≈ 2.14 µM), an MIC90 [29] greater than 32 µg/mL and an MIC50 [30] of 4 µg/mL (≈ 8.56 µM). The MIC90 [30] was greater than 64 µg/mL, the Activity [31] was 26.7% and the Activity [42] was 95.5%. The Activity [32] was 60.4% and the Activity [34] was 0%.
